A word on the IC50: it is the concentration that gives 50% inhibition. The term EC50 denotes the concentration that produces a half-maximal response.

This note sets out measurements from ChEMBL document CHEMBL1151696 (Bioorg Med Chem, 2008).

For one series, the system named is Trypanosoma brucei. In words: Trypanocidal activity against Trypanosoma brucei 427 blood stream after 48 hrs by hemocytometer. It counts as functional, organism-based. The conditions noted are these: Trypanosoma brucei, 427, 48 h.
The species entered for another series is Rattus norvegicus. Kind of series: Inhibition of [3H]dopamine uptake in Wistar rat striatum synaptosomes at 100 uM by scintillation spectrometry. It counts as functional, subcellular. More on the design: scale not given: the % may be the effect or the level left.
Series [1] in a line: Cytotoxicity against MDCK cells by MTS assay. It counts as cell-based, Canis lupus familiaris. The conditions noted are these: dog.
For another series, the system named is Influenza B virus. It counts as functional, organism-based. The conditions noted are these: B/Hong Kong/05/1972, MDCK.
The next series deals with Influenza A virus. Kind of series: microbe, parasite or virus in culture. The conditions noted are these: A/Puerto Rico/8/1934(H1N1), MDCK.
The test system of a further series is Influenza A virus H3N2. It counts as functional, organism-based, Influenza A virus (A/Hong Kong/7/1987(H3N2)). The conditions noted are these: MDCK.
Series [2] concerns Respiratory syncytial virus. It counts as functional, organism-based.
The subject of a further series is Sindbis virus. It counts as functional, organism-based.
Series [3] has as its system Vesicular stomatitis virus. The series is classed as functional, organism-based.
The next series relates to Feline coronavirus. The series is classed as functional, organism-based.
The next series concerns Human alphaherpesvirus 2. The series is classed as functional, organism-based.
A further series deals with Punta Toro virus. The series is classed as functional, organism-based.
The next series relates to Human respirovirus 3. It counts as functional, organism-based.
Series [4] deals with Mammalian orthoreovirus 1. The series is classed as functional, organism-based.
A further series has as its system Human alphaherpesvirus 1. It counts as functional, organism-based.
For the next series, the system named is Coxsackievirus B4. It counts as functional, organism-based.
The target in series [5] is T1, Glutamate NMDA receptor (Rattus norvegicus) (UniProt P35439+Q00959+Q00960+Q00961+Q62645+Q8VHN2+Q9R1M7). Kind of series: Antagonist activity at NMDA receptor in cerebellar granule neurons assessed as inhibition of glutamate-induced increase in intracellular calcium concentration by fluorometric assay. It counts as functional, cell-based. Background: A change in cytosolic calcium serves as a functional read-out for many receptors and channels.

Series [6] concerns the target T1, Glutamate NMDA receptor (Rattus norvegicus). In words: Antagonist activity at NMDA receptor in cerebellar granule neurons assessed as inhibition of NMDA-induced increase in intracellular calcium concentration by fluorometric assay. It counts as functional, cell-based.

Active and inactive are the calls of the source. The calls are words filed in the database; no cut-off is given here.

For the molecule `NC12CC3CC(CC(C3)C1)C2` [AMANTADINE], the IC50 with Trypanosoma brucei is > 130 µM. The same molecule yielded an Activity in the series filed under Rattus norvegicus of 47.4%. In addition, the MCC in series [1] was > 100 µM. Besides, in the series with Influenza B virus, the result was inactive. In addition, the EC50 in the series with Influenza A virus came to 77 µM; in the series with Influenza A virus H3N2, 2.7 µM.

For `CC12CC3CC1(C)CC3(N(Cc1ccccc1)Cc1ccccc1)C2`, the outcome (in [2]; in the series with Sindbis virus; in series [3]; with Feline coronavirus; with Human alphaherpesvirus 2; in the series with Punta Toro virus) was inactive. The result (in the series on Human respirovirus 3; in series [4]; in the series on Human alphaherpesvirus 1; with Coxsackievirus B4; in series [5]; in [6]) was inactive. In the series filed under Rattus norvegicus, the Activity was determined as 74.3%.
